Measured values taken from patent US20090068150A1, “LACTIC ACID BACTERIA CULTURE OF MUNG BEAN AND THE PREPARATION METHOD OF THE SAME, AND THE COSMETIC COMPOSITION COMPRISING THE SAME” (Doosan Corporation, priority 2005, published 2009).

Assays:
CD-1 mouse = assay: Inflammation (skin stimulus) alleviating effect on TPA-induced ear inflammation; format: in vivo
Protocol: In order to examine the inflammation (skin stimulus) alleviating effect of the lactic acid bacteria culture of mung bean containing the mung bean extract and GABA, which was obtained in the embodiment 2, a following test was conducted according to a method used by Sheu et al. (The Journal of Investigative Dermatology, 118, pp 94-101, 2002).
First, CD-1 mouse (male & female, 6-8 weeks, Charles River, USA) were used as test objects, and as stimulus material, 10 μl of TPA (12-O-tetradecanonylphorbol-13-acetate) 0.03% (wt/vol. in acetone) solution was applied to inside and outside of both ears of the test animals. Due to the treatment material, the ear was thickened and there occurred an inflammatory reaction. After that, as a positive control group, clofibrate (1 mM) and Wy14643 (1 mM) which are agonists of PPAR CL (Sheu et al., The Journal of Investigative Dermatology, 118, pp 94-101, 2002), and as a test material, the lactic acid bacteria culture of mung bean in the embodiment 2 were applied to the both surfaces of the ears in an amount of […], respectively, at 45 minutes and 4 hours after the inflammation induction.

skin = details: applied to the skin; cited from earlier work

## Cc1cccc(Nc2cc(Cl)nc(SCC(=O)O)n2)c1C [WY14643]
CD-1 mouse; TPA + WY14643 (1 mM), applied 45 minutes and 4 hours after induction
  ear swelling vs control group treated with TPA only (FIG. 4): the swelling was decreased
CD-1 mouse; positive controls 1 mM (group C Wy14643, group B clofibrate), vs TPA only
  inflammation alleviation, H&E dyed tissue slide (FIG. 5): the inflammation was also alleviated
skin
  skin inflammation due to stimulus materials after application to the skin: the inflammation due to stimulus materials is decreased
